The text below walks through data of PMC2743263 (Nature chemical biology, 2009).

For experiment [1], the target named is T1, cellular MTAN activity in V. cholerae N16961 (Vibrio cholerae serotype O1, UniProt Q9KPI8).
T1 sequence (Q9KPI8 1-231): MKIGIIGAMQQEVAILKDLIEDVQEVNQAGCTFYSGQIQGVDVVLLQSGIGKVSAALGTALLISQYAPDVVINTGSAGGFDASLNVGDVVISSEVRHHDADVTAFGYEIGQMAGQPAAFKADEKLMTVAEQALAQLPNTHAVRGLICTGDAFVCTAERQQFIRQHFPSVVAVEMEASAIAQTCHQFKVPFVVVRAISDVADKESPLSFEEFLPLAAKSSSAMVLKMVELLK
Format: cell-based. Particulars: cellular IC50 versus Ki*.

The subject of experiment [2] is autoinducer-2 production in V. cholerae N16961. The experiment is described as follows: Autoinducer-2 production after prolonged incubation. Format: cell-based, Vibrio cholerae. Particulars: V. cholerae N16961, LB, 26 generations, untreated 540-fold.
Experiment [3] deals with V. cholerae N16961. The experiment is described as follows: Growth of V. cholerae. It is filed as cell-based, Vibrio cholerae.
The test system of experiment [4] is autoinducer-2 production in E. coli O157:H7. The experiment is described as follows: Autoinducer-2 production after prolonged incubation. The conditions noted are these: E. coli O157:H7, LB, 26 generations, 1 μM; untreated 195-fold. It is filed as cell-based, Escherichia coli.
The subject of experiment [5] is autoinducer production by V. cholerae N16961. The experiment is described as follows: microbe, parasite or virus in culture. The conditions noted are these: Vibrio cholerae, read-out: AI Inhibition IC50, BB170.
Experiment [6] deals with E. coli O157:H7. The experiment is described as follows: Growth of E. coli. Format: cell-based, Escherichia coli.
Experiment [7] deals with E. coli MTAN (EcMTAN). The conditions noted are these: read-out: dissociation constant; cited from earlier work.
Experiment [8] concerns the target T2, VcMTAN (Vibrio cholerae serotype O1, UniProt Q9KPI8).
T2 sequence (Q9KPI8 1-231): T1 sequence (Q9KPI8 1-231)
The experiment is described as follows: VcMTAN substrate kinetics, loss of MTA at 274 nm. It is filed as biochemical.

Broadly, the IC50 is the midpoint of a concentration-inhibition curve. With `CCCCSC[C@H]1CN(Cc2c[nH]c3c(N)ncnc23)C[C@@H]1O` [BuT-DADMe-ImmA, 5′-butylthio-DADMe-ImmucillinA], the “increase above Ki* required to inhibit VcMTAN activity in the cell” value in experiment [1] is 30 fold. Also, the “quorum sensing signal (light induction in BB170)” value in experiment [2] (1 μM) is on record as 4.2 fold; in experiment [2] (2.5 μM), 1.3 fold. Besides, the “growth of cells in the biofilm assay” value was “did not inhibit growth” in experiment [3] (V. cholerae N16961, 1 μM, static, 25 °C) and “did not inhibit growth” in experiment [6] (E. coli O157:H7, 1 μM, static, 25 °C). Also, the growth result in experiment [3] (V. cholerae N16961, 26 generations, 1 or 2.5 μM) is on record as “remained uninhibited”; in experiment [6] (E. coli O157:H7, 26 generations, 1 or 2.5 μM), “remained uninhibited”; in experiment [6] (E. coli O157:H7 and MTAN knockout strain, AB medium, up to 0.5 μM), “no growth defects”. The “effect on cell growth (OD600)” value in experiment [3] (overnight culture, concentrations up to 1 μM) is on record as “without affecting growth”. For the same compound, the “light induction in BB170” value in experiment [4] was determined as 1.4 fold. For the same compound, in experiment [5], the IC50 was 1.4 ± 0.3 nM.

For `CCSC[C@H]1CN(Cc2c[nH]c3c(N)ncnc23)C[C@@H]1O` [EtT-DADMe-ImmA, 5′-ethylthio-DADMe-ImmucillinA], in experiment [5], the IC50 was determined as 11 ± 2 nM.

For the compound `CSC[C@H]1CN(Cc2c[nH]c3c(N)ncnc23)C[C@@H]1O` [MT-DADMe-ImmA, 5′-methylthio-DADMe-ImmucillinA], the Ki in experiment [7] was 0.002 nM. In addition, the IC50 in experiment [5] is 0.94 ± 0.13 nM.

Usually Km stands for the substrate concentration at which the rate is half of its maximum. As a reminder, the kcat is the maximal rate divided by the concentration of active sites. On to `CSC[C@H]1O[C@@H](n2cnc3c(N)ncnc32)[C@H](O)[C@@H]1O` [MTA, methylthioadenosine], for which, in experiment [8], the Km came to 3 µM and the kcat worked out at 2 s⁻¹.
